The source of these data is US7635709B2, “Compositions and methods for bowel care in individuals with chronic intestinal pseudo-obstruction” (priority 2002, dated 2009).

SMILES strings stand for the structures.

The subject of series [1] is persons with SCI. Briefly: Airway resistance by forced oscillation technique in thirteen SCI subjects (Example 3). It counts as in vivo, human. The note with it: IV bolus 2 mg neostigmine. The method, then: (§1) On separate days, subjects were given by IV bolus either (i) 2 mg neostigmine alone, (ii) a combination of 2 mg neostigmine and 0.4 mg glycopyrrolate, or (iii) normal saline. Subjects were blinded to the type of infusion being delivered. The effect of these infusions on bowel evacuation was assessed semi-quantitatively on a scale of 0 (no evacuation) to 4+ (complete evacuation) using video fluoroscopy after rectal instillation of a barium-oatmeal paste having a consistency similar to that of stool. Blood pressure, heart rate and other vital signs were monitored in each subject. In addition, airway resistances were determined in each subject using the forced oscillation technique (as described, for example, in Goldman, Pulm. Pharmacol. Ther., 14(5):341-350, 2001). Total airway resistance was determined using 5 Hz forced oscillations, and central airway resistance was determined using 20 Hz forced oscillations.

The subject of series [2] is patients with acute colonic pseudo-obstruction. Particulars: Ponec et al. 1999; cited from earlier work.
Series [3] concerns persons with SCI. Briefly: Heart rate, blood pressure and side effects monitoring in thirteen SCI subjects (Example 3). The note with it: IV bolus 2 mg neostigmine, with or without 0.4 mg glycopyrrolate, 13 SCI subjects. Format: in vivo, human. The method, then: (§2) Thirteen (13) persons with SCI (5 quadriplegics, 8 paraplegics) with a mean age of 46 years (range 25-69) and mean duration of injury of 16 years (range 1-31) were treated. None of the subjects had known heart disease and/or history of arrhythmias.
as §1

The test system of series [4] is persons with SCI. In words: Bowel evacuation score by video fluoroscopy after rectal barium-oatmeal paste in thirteen SCI subjects (Example 3). Format: in vivo, human. Particulars: IV bolus 2 mg neostigmine, with or without 0.4 mg glycopyrrolate, 13 SCI subjects. As to the method:
as §2, §1
This response received a 0 (zero) bowel evacuation score. FIGS. 1B-1E show progressively increasing bowel evacuation responses in different subjects. The responses in FIGS. 1B-1E correspond to bowel evacuation scores of 1+, 2+, 3+, and 4+, respectively.

As to `CN(C)C(=O)Oc1cccc([N+](C)(C)C)c1` [neostigmine], in the series with persons with SCI [1] (5 Hz forced oscillations), the “total airway resistance, increase over baseline” value is “approximately 25.5%”. In addition, the “central airway resistance, increase over baseline” value in the series with persons with SCI [1] (20 Hz forced oscillations) was “approximately 18.4%”. Moreover, in series [2], the “passage of flatus or stool with reduction in abdominal distention” value is “most patients successfully passed flatus or stool”. In addition, in the series with persons with SCI [3], the “change in blood pressure after administration” value is reported as “No change”; the “other side effects (muscle twitching, sweating, vague abdominal sensations, salivation)” value was “transient and minimal”. In the series on persons with SCI [3] (p=0.02 between groups), the “mean lowest heart rate measured” value is given as “about 49 BMP”. Also, in the series with persons with SCI [4], the “subjects with prompt and complete evacuation” value is 57 % of subjects; the “time of evacuation post infusion, mean” value was 11 min. In the series with persons with SCI [4] (scale 0 (no evacuation) to 4+ (complete evacuation)), the “mean bowel evacuation score” value is recorded as “about 2.29”.
